Like-named read-outs stand apart in the source and are kept apart here.

One experiment deals with T1, SF3b complexes (Homo sapiens, UniProt O75533+Q7RTV0).
T1 construct: endogenous in cells; host or cells: Nuclear extracts; A HeLa S3 extract preparation is described for the in vitro splicing assay
As to the kind of experiment: Scintillation proximity assay (SPA) with [3H]-labelled pladienolide probe. The following applies: SF3B1 (WT); geometric mean; read-out: SPA-ATS GMean IC50 (nM) SF3B1 (WT). In kind it is binding. The procedure:
Scintillation Proximity Assay (SPA) with [^3-H]-Labelled Pladienolide Probe
(§1) Batch immobilization of anti-SF3B1 antibody (MBL) to anti-mouse PVT SPA scintillation beads (PerkinElmer) was prepared as follows: for every 2.5 mg of nuclear extracts, 5 μg anti-SF3B1 antibody and 1.5 mg of beads were mixed in 150 μl PBS. The antibody-bead mixture was incubated for 30 min at RT and centrifuged at 18,000 g for 5 min. 150 μl PBS was used to resuspend every 1.5 mg antibody-bead mixture. The beads were suspended and added to the prepared nuclear extracts. The slurry was incubated for 2 h at 4° C. with gentle mixing. The beads were then collected by centrifuging at 18,000 g for 5 min, and washed twice with PBS+0.1% Triton X-100. After a final centrifugation step, every 1.5 mg of beads was suspended with 150 μl of PBS. The SF3b complexes were tested for [^3H]-labelled pladienolide probe binding ([^3H]—PB), synthesized as previously described (Kotake et al., 2007). 100 μl binding reactions were prepared with 50 μl bead slurry and by adding varying concentrations of PB or PB—OH, and after 30 min pre-incubation, 2.5 nM [^3H]—PB was added. The mixture was incubated for 30 min, and luminescence signals were read using a MicroBeta2 Plate Counter (PerkinElmer). Prism 6 (Graphpad) was used for non-linear regression curve fitting of the data. • a. • b. HeLa nuclear extract preparation (for in vitro splicing modulation assay below) • c. HeLa S3 cell pellets were resuspended in hypotonic buffer (10 mM HEPES pH 7.9, 1.5 mM MgCl2, 10 mM KCl, 0.2 mM PMSF, and 0.5 mM DTT) and the suspension was brought up to a total of 5 packed cell volume (PCV). After centrifugation, the supernatant was discarded, and the cells were brought up to 3 PCV with hypotonic buffer and incubated on ice for 10 minutes. Cells were lysed using a dounce homogenizer and then centrifuged. The supernatant was discarded, and the pellet was resuspended with ½ packed nuclear volume (PNV) of low salt buffer (20 mM HEPES pH 7.9, 1.5 mM MgCl2, 20 mM KCl, 0.2 mM EDTA, 25% glycerol, 0.2 mM PMSF, 0.5 mM DTT), followed by ½ PNV of high salt buffer (same as low salt buffer except 1.4 M KCl was used). The nuclei were gently mixed for 30 minutes before centrifuging. The supernatant (nuclear extract) was then dialyzed into storage buffer (20 mM HEPES pH 7.9, 100 mM KCl, 0.2 mM EDTA, 20% glycerol, 0.2 mM PMSF, 0.5 mM DTT). Protein concentration was determined using NanoDrop 8000 UV-Vis spectrophotometer (ThermoFisher Scientific). • d. In vitro splicing assay (IVS)
A general note: Scintillation proximity formats need no separation of bound from free tracer.

Experiment [1] has as its system Ad2 variant pre-mRNAs spliced in HeLa S3 nuclear extracts. As to the kind of experiment: In vitro splicing assay (IVS), RT-qPCR of spliced product. In kind it is biochemical. The following applies: for IC50: geometric mean; for Ratio Ad2.1/2.2: ratio of IVS IC50 Ad2.1 to Ad2.2. Here is the method: as §1
All Ad2-derived (Pellizzoni et al., 1998) sequences were cloned into pcDNA3.1(+) vector (Promega) using 5′ EcoRI and 3′ XbaI restriction sites. The plasmids were linearized using XbaI and used as DNA templates in the in vitro transcription reactions. The FtzΔi intron-less plasmid (Luo and Reed, 1999) was linearized using EcoRI. All RNAs were in vitro transcribed and then purified using MEGAScript T7 (Invitrogen) and MegaClear (Invitrogen) kits, respectively. For splicing reactions using Ad2 variant pre-mRNAs, […] reactions were prepared using 8 μg nuclear extracts prepared from HeLa S3, 2 ng pre-mRNA, 0.2 ng FTZΔi, and varying concentrations of exemplary payloads or DMSO. After a 15 minute pre-incubation at 30° C., 1 μL splicing activation buffer (0.5 mM ATP, 20 mM creatine phosphate, 1.6 mM MgCl2) was added, and the reactions were incubated for 90 minutes at 30° C. The reactions were then quenched with 13 μL it DMSO, and 25 nL was used for RT-qPCR. RT-qPCR reactions were prepared using TaqMan RNA-to-CT 1-step kit (Life Technologies), RNA from splicing reactions, Ad2 (forward: […]; reverse: […]; probe: […]) and Ftz (forward: […]; reverse: […]; probe: […]) mRNA primer-probe sets. Prism 6 (Graphpad) was used for non-linear regression curve fitting of the formed spliced product and normalized to the control (DMSO) sample.

Experiment [2] relates to NCI-H1568 cells (high MCL1). As to the kind of experiment: Cell proliferation and viability, CellTiter-Glo, 72 hours. The experiment is classed as cell-based. The following applies: for GI50: geometric mean. The procedure: Cell lines were maintained in RPMI-1640 (ATCC 30-2001) supplemented with 10% fetal bovine serum (FBS). The Panc lines were supplemented in addition with insulin and FBS up to 15% total.
Compounds for assay were prepared as stocks in 90% dimethyl sulfoxide (DMSO), assessed for purity by LC/MS, and serially diluted in DMSO using a low-volume liquid handler (VIAFLO ASSIST and VIAFLO II electronic 16-channel pipette, 0.5-12.5 μL) in an 11-point half-log serial dilution to create a master dose response (MDR) source used for all tests.
Transfer of compounds from the MDR source plate to cell assay-ready plates were accomplished directly by low-energy acoustic transfer (ATS100, EDC Biosystems). After transfer of compounds to the assay plate, the dose-response range experienced by cells was typically 10 μM-100 pM (5 logs), and final DMSO concentration in the assay was 0.1%, uniformly. Each assay plate was self-anchored containing vehicle/DMSO negative controls, medium-only/positive controls, and cidal control dose-responses of bortezomib and staurosporine. Assay-ready plates were heat-sealed and stored at −20° C. until used, no longer than one month.
A DMSO-matched time zero (T0) plate was read and then all other plates were incubated at 37° C. with 5% CO2 and 95% relative humidity until the end of assay. Cell proliferation and viability assays were performed 72 hours post-treatment depending on cell growth where at least one doubling would have occurred.
Assessment of viability and proliferation was by measurement of cell ATP content using CellTiter-Glo® Luminescent Cell Viability Assay reagent (Promega) according to the manufacturer's instructions (CellTiter-Glo® Luminescent Cell Viability Assay Technical Bulletin Instructions for Use of Product(s) G7570, G7571, G7572, G7573 Literature #TB288, Revised March 2015), using a microtiter plate reader (Envision, PE).
Cell proliferation was evaluated using the time zero (T0) signal as the positive control and the within-plate vehicle wells (DMSO) as the negative control. Data was converted to percent inhibition and falls into the range from −100% to 100% of growth where −100% equals a cidal response and 100% equals uninhibited or maximal growth. Cell growth at or near 0% is considered a static response.
(ATP-based viability assays read luminescence as a measure of living cells.)

The mark [3] stands for this setting: Ad2.1 pre-mRNA substrate, read-out: qPCR-IVS-ATS GMean IC50 (nM) Ad2.1.
[4] abbreviates: Ad2.2 pre-mRNA substrate, read-out: qPCR-IVS-ATS GMean IC50 (nM) Ad2.2.
Setting [5] is: NCI-H1568, read-out: CTGlo-ATS GMean GI50 (nM) 72 h NCIH1568.1, NCIH1568.1 cells, 72 h.
Setting [6] is: NCIH1568.1 cells, 72 h, −100% cidal, 0% static, 100% maximal growth.
[7] abbreviates: 72 h, NCIH1568.1, -100% = cidal, 0% = static, 100% = uninhibited growth.
Where [8] appears, read: NCI-H1568, 72 h, read-out: CTGlo-ATS GMean GI50 (nM) 72 h NCIH1568.1, 72 h, NCIH1568.1.

Consider `C/C(=C\c1cc(F)cc(N(C)C2CCN(C(=O)c3cn(C)cn3)CC2)c1)[C@H]1OC(=O)C[C@H](O)CC[C@H](C)[C@@H](OC(=O)N2CCN(C)CC2)/C=C/[C@@H]1C` [Compound 190], for which the IC50 worked out at 6.55 nM on SF3b complexes, 33.5 nM in experiment [1] (setting [3]) and 15.7 nM in experiment [1] (setting [4]). Moreover, the GI50 in experiment [2] (setting [5]) worked out at 19.8 nM. Besides, the “CTGlo-ATS Mean MinResponse % 72 h NCIH1568.1” value in experiment [2] (setting [6]) was −69.142%.

As to `C/C(=C\c1cc(F)c2nnn([C@@H]3CCCOC3)c2c1)[C@H]1OC(=O)C[C@H](O)CC[C@H](C)[C@@H](OC(=O)N2CCN(C)CC2)/C=C/[C@@H]1C` [Compound 161], the IC50 at SF3b complexes amounted to 2.51 nM; in experiment [1] (setting [3]) it was 8.5 nM; in experiment [1] (setting [4]) it was 6.31 nM. In experiment [2] (setting [5]), the GI50 worked out at 0.772 nM. In addition, the “CTGlo-ATS Mean MinResponse % 72 h NCIH1568.1” value in experiment [2] (setting [6]) is given as −85.783%.

For the molecule `C/C(=C\c1cc(F)cc(N2CCN(C(=O)Cn3cccn3)CC2)c1)[C@H]1OC(=O)C[C@H](O)CC[C@H](C)[C@@H](OC(=O)NCCN(C)C)/C=C/[C@@H]1C` [Compound 224, [(2S,3S,4E,6R,7S,10R)-2-[(E)-1-[3-fluoro-5-[4-(2-pyrazol-1-ylacetyl)piperazin-1-yl]phenyl]prop-1-en-2-yl]-10-hydroxy-3,7-dimethyl-12-oxo-1-oxacyclododec-4-en-6-yl] N-[2-(dimethylamino)ethyl]carbamate], the IC50 on SF3b complexes turned out to be 3.14 nM; in experiment [1] (setting [3]), 41.1 nM; in experiment [1] (setting [4]), 5.88 nM. Besides, the “Ratio Ad2.1/2.2” value in experiment [1] was determined as 6.991. For the same molecule, the “CTGlo-ATS Mean MinResponse % 72 h NCIH1568.1” value in experiment [2] (setting [7]) was −61.875%. The GI50 in experiment [2] (setting [8]) worked out at 16.4 nM.

With `C/C(=C\c1cc(F)c2nnn(Cc3ccc(Cl)cc3)c2c1)[C@H]1OC(=O)C[C@H](O)CC[C@H](C)[C@@H](OC(=O)N2CCN(C)CC2)/C=C/[C@@H]1C` [Compound 145], the IC50 turned out to be 69.4 nM on SF3b complexes, 688 nM in experiment [1] (setting [3]) and 38.1 nM in experiment [1] (setting [4]). Further, in experiment [2] (setting [5]), the GI50 was 25 nM. Moreover, in experiment [2] (setting [6]), the “CTGlo-ATS Mean MinResponse % 72 h NCIH1568.1” value is listed as −66.236%.

As to `C/C(=C\c1cc(F)cc(N2CCN(C(=O)Cn3cccn3)CC2)c1)[C@H]1OC(=O)C[C@H](O)CC[C@H](C)[C@@H](OC(=O)N2CCN(C3CCCCC3)CC2)/C=C/[C@@H]1C` [Compound 238, [(2S,3S,4E,6R,7S,10R)-2-[(E)-1-[3-fluoro-5-[4-(2-pyrazol-1-ylacetyl)piperazin-1-yl]phenyl]prop-1-en-2-yl]-10-hydroxy-3,7-dimethyl-12-oxo-1-oxacyclododec-4-en-6-yl] 4-cyclohexylpiperazine-1-carboxylate], the IC50 at SF3b complexes turned out to be 18.1 nM; in experiment [1] (setting [3]), 32.2 nM; in experiment [1] (setting [4]), 68.1 nM. In experiment [1], the “Ratio Ad2.1/2.2” value came out at 0.473. Moreover, in experiment [2] (setting [7]), the “CTGlo-ATS Mean MinResponse % 72 h NCIH1568.1” value is reported as −88.447%. For the same molecule, in experiment [2] (setting [8]), the GI50 worked out at 5.79 nM.

Consider `C/C(=C\c1cc(F)cc(N2CCN(C(=O)Cn3cccn3)CC2)c1)[C@H]1OC(=O)C[C@H](O)CC[C@H](C)[C@@H](OC(=O)N2CCCN(C)CC2)/C=C/[C@@H]1C` [Compound 225, [(2S,3S,4E,6R,7S,10R)-2-[(E)-1-[3-fluoro-5-[4-(2-pyrazol-1-ylacetyl)piperazin-1-yl]phenyl]prop-1-en-2-yl]-10-hydroxy-3,7-dimethyl-12-oxo-1-oxacyclododec-4-en-6-yl] 4-methyl-1,4-diazepane-1-carboxylate], for which the IC50 at SF3b complexes was determined as 18.2 nM; in experiment [1] (setting [3]) it was 7.56 nM; in experiment [1] (setting [4]) it was 22.4 nM. Besides, the “Ratio Ad2.1/2.2” value in experiment [1] stood at 0.337. Moreover, in experiment [2] (setting [7]), the “CTGlo-ATS Mean MinResponse % 72 h NCIH1568.1” value is recorded as −73.768%. For the same molecule, in experiment [2] (setting [8]), the GI50 is 11 nM.

Turning to `COc1ccc(CNC(=O)O[C@H]2/C=C/C(C)C(/C(C)=C/c3cc(F)cc(N4CCN(C(=O)Cn5cccn5)CC4)c3)OC(=O)CC(O)CC[C@@H]2C)cc1` (stereo in doubt) [Compound 226, [(2R,3R,4E,6R,7S,10S)-2-[(E)-1-[3-fluoro-5-[4-(2-pyrazol-1-ylacetyl)piperazin-1-yl]phenyl]prop-1-en-2-yl]-10-hydroxy-3,7-dimethyl-12-oxo-1-oxacyclododec-4-en-6-yl] N-[(4-methoxyphenyl)methyl]carbamate], the 50% inhibitory concentration (IC50) is 1.17 nM on SF3b complexes, 8.74 nM in experiment [1] (setting [3]) and 102 nM in experiment [1] (setting [4]). Besides, the “Ratio Ad2.1/2.2” value in experiment [1] came to 0.086. Also, in experiment [2] (setting [7]), the “CTGlo-ATS Mean MinResponse % 72 h NCIH1568.1” value is −64.963%. The GI50 in experiment [2] (NCI-H1568, read-out: CTGlo-ATS GMean GI50 (nM) 72 h NCIH1568.1, 72 h, NCIH1568.1) came out at 34.7 nM.

As usually defined, the IC50 is the concentration needed to halve the response being measured. A word on the GI50: it is the concentration at which growth is held to half of that of the control.

Values taken from patent US11679107B2 (Eisai R&D Management Co., Ltd., priority 2018, dated 2023).
